The source of these data is patent US6028102A, “Anticonvulsant drugs and pharmaceutical compositions thereof” (priority 1998, dated 2000).

Data set [1] in a line: rotored ataxia test (neurotoxicity), ip to mice. To be noted: for TD50: mouse, in vivo, ip. The class given is in vivo. Here is the method: (§1) Screening of Anticonvulsant Activity
(§2) Compounds I-XI were screened in carworth farm #1 mice (ip--in a volume of 0.01 mL/g of body weight) and sprague-Dawley rats (po--in a volume of 0.004 mL/g of body weight) for their anticonvulsant activity and neurotoxicity by the NIH epilepsy Branch [Porter et al, 1984]. The screening procedure involved the following:
(§3) 1) the maximal electroshock (MES) test, which measures seizure spread; 2) the subcutaneous pentylenetetrazol test (sc Met test) which measures seizure threshold; and 3) the rotored ataxia test which assesses neurotoxicity.
TD50 - Neurotoxic dose in 50% of the test animals.

A short description of data set [2]: maximal electroshock (MES) test, ip to mice. The class given is in vivo. To be noted: for ED50: Mus musculus. As for the experimental part:
as §1, §2, §3
Anticonvulsant activity and neurotoxicity of N-acetyl, N'-
benzylglycinamide (VII) and N-benzyloxycarbonylglycinamide
(IX) following ip administration to mice in comparison to
phthaloylglycinamide and N-valproylglycinamide^a.
MES Maximal electroshock.
(§4) ED50 - Effective dose in 50% of the test animals.
In general terms: Protection in the maximal electroshock model is a classic sign of anticonvulsant action.

A short description of the next data set: Stability in dog plasma. As to conditions: 37° C. and 20° C. The class given is in vitro ADME.
Data set [3] in a line: Pharmacokinetic analysis following iv administration to dogs. The class given is in vivo. As to conditions: for clearance: CL. As for the experimental part:
The experiments were carried out on six male dogs (mongrels), ranging in weight between 18 and 22 kg. In a randomized cross over design, each dog was injected intravenously (in 1.5 mL of DMSO) with a dose of 400 mg of N-acetyl,N'-benzylglycinamide (VII), 404 mg (on dose equivalent to 400 mg of compound VII) of Z-glycinamide (IX) and 406 mg of Z-glycine (VIII). Urine was collected systematically for 12 hours after dosing, by means of an indwelling catheter.
Venous blood samples (6 mL) were collected via an indwelling catheter (from the cephalic vein) at specified intervals following injection (0, 5, 10, 20, 30, 45 minutes and 1, 1.5, 2, 2.5, 3, 4, 5, 6, 7, 8, 10 and 12 hours respectively). The plasma was then immediately separated by centrifugation at 3000 g for 15 minutes and stored at -20° C. Before each assay, the plasma was allowed to reach room temperature, vortexed, centrifuged and the residual clot removed.
Urine samples were collected via a urine catheter at specified intervals following injection (0, 1, 2, 3, 4, 5, 6, 7, 8, 9, 10 and 12 hours respectively), the samples volume were measured and the urine samples were stored at -20° C. Plasma and urine levels of compounds VII, VIII and IX were then assayed by a HPLC assay described herein below.
HPLC Assay for Monitoring N-acetyl,N'-benzylglycinamide (VII) and N-benzyloxycarbonylglycinamide (IX) in Dog Plasma and Urine
Plasma samples are allowed to reach room temperature, vortexed and centrifuged. The plasma was then assayed as follows:
To 0.5 mL of plasma, 10 μg of an internal standard (N-benzyl-oxycarbonylglycinamide (IX)) and 4 mL of tert-butylmethylether were added. The mixture was vigorously vortexed for 30 seconds, centrifuged for 10 minutes at 3000 g, the organic phase was separated and evaporated to dryness (using a vortex evaporator). To the residue, 80 μl of methanol were added, the mixture was vortexed and 30 μl were injected into the HPLC (Schimadzu SCL-10A with a UV-visible detector model SPD-10A).
Urine samples are allowed to reach room temperature, vortexed and centrifuged. The urine was then assayed as follows:
To 0.25 mL of urine, 10 μg of internal standard (N-benzyl-oxycarbonylglycinamide (IX)), 100 μl of hydrochloric acid solution (1 N) and 4 mL of tert-butylmethylether were added. The mixture was vigorously vortexed for 30 seconds and centrifuged for 10 minutes at 3000 g, the organic phase was separated and transferred to another test tube containing 0.5 mL of sodium hydroxide solution (1N), the mixture was vigorously vortexed for 30 seconds, centrifuged for 10 minutes at 3000 g, the organic phase was separated and evaporated to dryness (using a vortex evaporator). To the residue, 80 μl of methanol were added, the mixture was vortexed and 30 μl were injected into the HPLC.
HPLC conditions: HPLC column; Hypersil ODS (C-18) 5μ, 4.6×150 mm; Wavelength: 258 nm; Mobile phase: 60% water, 40% methanol and 0.01% trifluoroacetic acid.
The same assay was used for monitoring N-benzyloxycarbonyl-glycinamide (IX) in dog plasma and dog urine using N-acetyl,N'-benzylglycinamide as an internal standard.
HPLC Assay for Monitoring Z-glycine (VIII) in Dog Plasma and Urine
To 0.5 mL of plasma, 10 μg of internal standard (Z-GABA), 100 μl of hydrochloric acid solution (1N) and 5 mL of tert-butylmethylether were added. The mixture was vigorously vortexed for 30 seconds, centrifuged for 10 minutes at 3000 g, the organic phase was separated and evaporated to dryness (using a vortex evaporator). To the residue, 100 μl of mobile phase were added, the mixture was vortexed and 30 μl were injected to the HPLC.
Urine samples was allowed to reach room temperature, vortexed and centrifuged. The urine was then assayed as follows:
To 0.1 mL of urine, 30 μg of internal standard (Z-GABA) and 5 mL of tert-butylmethylether were added. The mixture was vigorously vortexed for 30 seconds, centrifuged for 10 minutes at 3000 g, the organic phase was separated off. […]

Data set [4] can be described thus: Screening of anticonvulsant activity. The class given is in vivo, mice. To be noted: for anticonvulsant activity in words: overall finding of the study. Here is the method:
as §1, §2, §3
Applicants therefore decided to derivatize glycinamide and the above dipeptides by synthesizing their N-acetyl and N'-benzyl derivatives (compounds IV-VIII). […] Therefore, this compound was further analyzed quantitatively and its ED50 data and protective indices in comparison to phthaloyl glycinamide and valproyl glycinamide--TV 1901 [17] are presented in Table 2. As a consequence of their anticonvulsant activity, the pharmacokinetics of compounds VII and IX were investigated following iv administration (400 mg) to six dogs, and the mean plasma levels of compounds VII and IX are presented in FIGS. 1 and 2, respectively.

Data set [5] is described as follows: Blood stability study in dog blood. The class given is in vitro ADME. Here is the method: Blood samples (4 mL) were then collected at the following times: 0, 1, 2, 3, 4, 5 and 6 hours. Plasma was immediately separated and the compounds concentrations in the plasma assayed by HPLC.
For data set [6] the following is noted: mice; Kohn et al 1988, 1990, 1991; Conley and Kohn, 1987; cited from earlier work.
The conditions of data set [7]: rats; Lambert et al. [1994]; cited from earlier work.
Data set [8] is described as follows: subcutaneous pentylenetetrazol test (sc Met), ip to mice. The class given is in vivo. As for the experimental part:
as §1, §2, §3, §4

A short description of data set [9]: Metabolism and urinary excretion in rats. The class given is in vivo. To be noted: iv. As for the experimental part: (§5) In two separate experiments cold (unlabeled) Z-glycinamdie and Z-glucine were injected intravenously to male rats. For the experiments, the two compounds were dissolved in 0.2 mL of DMSO and were injected at a dose of 25 mg. Blood samples (8 mL each) were collected from the ascending vena cava of an individual rat at 5, 10, 20, 30, 45, 60, 90, 120, 150, 180, 240, 300, 360 and 480 minutes after administering the drug dose. Three rats were sacrificed for each of the aforementioned time measurements and the plasma or tissue obtained from each rat for each time point was averaged. Plasma was immediately separated by centrifugation at 3000 g for 15 minutes and stored at -20° C. until analyzed. Brain and liver were quickly removed at the same time intervals under light ether anesthesia, the excised tissues were immersed in liquid nitrogen for a few minutes and stored at -70° C. until analyzed. Four rats were kept in metabolic cages and the cumulative urine was collected from each rat for 480 minutes after dosing.
In rats […] of the N-benzyloxycarbonylglycinamide (IX) dose administered is metabolized to Z-glycine and excreted in the urine with the remaining 15% excreted as N-benzyloxycarbonylglycinamide (IX).

Data set [10] is described as follows: Partitioning study, blood-plasma concentration ratio. To be noted: dog blood, 25° C., 5-40 mg/L. The class given is in vitro ADME. Here is the method:
The blood-plasma concentration ratio of compounds VII and IX (partitioning study) was carried out at room temperature (25° C.) by spiking known amounts of the compound in six samples of fresh blood taken from a dog prior to drug administration. N-acetyl, N'-benzylglycinamide and Z-glycinamide concentrations were 5, 10, 15, 20, 30 and 40 mg/L. Each blood sample was centrifuged immediately after spiking and the separation of the plasma was carried out according to the procedure described hereinabove. Plasma levels of the two compounds VII and IX were determined by HPLC.

A short description of data set [11]: Blood-brain-barrier crossing after iv injection to rats. The class given is in vivo. As to conditions: 25 mg. Here is the method: as §5
Where [12] appears, read: 6 hours at physiological conditions (37° C.).

“Also recorded” adds a separate entry of the source.

As for `CC(=O)NCC(=O)NCc1ccccc1` [compound VII, N-Acetyl,N'-benzylglycinamide], the neurotoxic signs result in data set [1] (at a dose as high as 300 mg/kg) is listed as “did not show neurotoxic signs”. Also, the TD50 (commonly the 50% point of the dose-response relation for the toxic effect studied) in [1] is over 200 mg/kg. In data set [2], the “PI, MES (Protective index, ratio of TD50 to ED50)” value was determined as 2.3 and the ED50 – broadly, the dose at which the effect has come halfway, by size or by number of responders – amounted to 88 mg/kg. In addition, in “Stability in dog plasma”, the “stability in dog plasma” value was “stable”. In addition, in data set [3] (dog, in vivo), the CL is 6.8 ± 0.84 L/h; the MRT (in general, a mean duration of stay, worked out from the concentration-time curve) was found to be 3.0 ± 0.6 h; the half-life (commonly the time in which the quantity being followed falls by half) is 2.1 ± 0.4 h; the hepatic extraction ratio was 0.0125. Also, in [3] (dog, in vivo), the “pharmacokinetics and elimination in words” value is listed as “eliminated from the body mainly by metabolism”; the t1/2 is 2.1 ± 0.5 h; the clearance (usually a measure of how efficiently the substance is removed, as volume per time) was 107 mL/min. This compound gave an MRT in [3] (dog, in vivo, MRT) of 3.3 ± 0.8 h. In data set [3] (dog, in vivo, VSS), the Vd (as a rule, a proportionality between amount in the body and measured concentration, not a real space) is 21 ± 4 L. Also, in [3] (dog, in vivo, Vss), the Vd turned out to be 20 ± 4 L. The compound further displayed a Vd in data set [3] (dog, in vivo, Vβ) of 19 ± 6 L. In addition, the anticonvulsant activity entry in data set [4] (ip administration of 100 mg/kg to mice) was “showed anticonvulsant activity”. In addition, in data set [4], the “anticonvulsant activity in words” value is listed as “active”. In [5] (20° C.), the “stability in dog blood” value was “unstable”. The “stability in dog blood” value in data set [5] (setting [12]) is “unstable”. Further, the “anticonvulsant activity in MES test” value in data set [6] is reported as “active at a higher dose of 300 mg/kg”.

Take `O=C(O)CNC(=O)OCc1ccccc1` [compound VIII, N-benzyloxycarbonylglycine]: in [7], the “anticonvulsant activity relative to glycine” value is given as “far more active than glycine”. Further, the “fm (fraction metabolized of Z-glycinamide to Z-glycine)” value in [3] (dog, in vivo) was found to be 80.1 ± 13.6%. In data set [3] (dog, in vivo), this compound gave a half-life of 0.6 ± 0.14 h. The “pharmacokinetics and elimination in words” value in [3] (dog, in vivo) was “its t1/2 was the shortest”. The “Mu/D (fraction of Z-glycine excreted in the urine as a metabolite of Z-glycinamide)” value in data set [3] (dog, in vivo, 720 min) worked out at 20 ± 19.8%. Further, the clearance in data set [3] (dog, in vivo) was 90 mL/min. This compound also had an MRT in [3] (dog, in vivo, MRT) of 0.8 ± 0.1 h. Moreover, the Vd in data set [3] (dog, in vivo, VSS / volume of distribution) is 0.2 L/kg; in [3] (dog, in vivo, Vss), 4.9 ± 0.6 L; in data set [3] (dog, in vivo, Vβ), 4.5 ± 0.8 L. Besides, the “anticonvulsant activity in words” value in data set [4] was “lack of activity”; in [4] (listed as Z-glycine) it was “inactive in this study”.

On to `NC(=O)CNC(=O)OCc1ccccc1` [IX, N-benzyloxycarbonylglycinamide], for which the “PI, sc Met (Protective index, ratio of TD50 to ED50)” value in [8] amounted to 2.4. The same compound returned a median effective dose (ED50) in [8] (Mus musculus) of 95 mg/kg. Further, in data set [1], the TD50 stood at 230 mg/kg. In addition, in data set [9] (rat, in vivo, 480 min), the “dose metabolized to Z-glycine and excreted in the urine” value is reported as 75%. Besides, the site of metabolism entry in [9] (rats) is reported as “occurs primarily in the liver”. For the same compound, in [2], the “PI, MES (Protective index, ratio of TD50 to ED50)” value stood at 5.0 and the ED50 came to 46 mg/kg. Besides, the “plasma to blood ratio” value in [10] came to 0.95±0.05. Also, in data set [3] (dog, in vivo), the CL stood at 10.7 ± 4.3 L/h, the half-life is 2.3 ± 1.3 h, the hepatic extraction ratio is 0.02 and the metabolised came out at 80 ± 14%. The clearance in data set [3] (dog, in vivo) is 183 mL/min. Also, the mean residence time (MRT) in data set [3] (dog, in vivo, MRT) turned out to be 3.3 ± 1.8 h. The compound also gave a Vd in data set [3] (dog, in vivo, VSS) of 33 ± 10 L. The compound further came in with a Vd in data set [3] (dog, in vivo, Vss) of 33 ± 10 L. In data set [3] (dogs), the “pharmacokinetics and elimination in words” value was “mainly metabolized to Z-glycine; also recorded: eliminated from the body mainly by metabolism”. The “pharmacokinetics and elimination in words” value in data set [3] (dogs, listed as Z-glycinamide) is “mainly metabolized to the inactive Z-glycine”. Moreover, the “anticonvulsant activity in words” value in data set [4] is “showed anticonvulsant activity in mice; also recorded: active”. The “stability in dog blood” value in data set [5] (setting [12]) is listed as “stable”. Moreover, the “crossing of the blood-brain-barrier” value in data set [11] is reported as “crossed the blood-brain-barrier more readily than does Z-glycine”.
